Reference: patent US10793530B2, “Benzylaminopyrazinylcyclopropanecarboxylic acids, pharmaceutical compositions and uses thereof” (Boehringer Ingelheim International GmbH, priority 2017, dated 2020)
pEC50: −log10 of the molar value.

Molecular target: human GPR40 receptor (Homo sapiens, UniProt O14842)
Assay: IP1 accumulation measurements using the IPOne assay system
Assay type: cell-based
Settings: 1321N1 cells stably expressing human GPR40 receptor; stimulated 1 h at 37° C.
Protocol: IP1 is assayed according to the manufacturers description (Cisbio Bioassays, France). In brief, the assay is started by substitution of the culture medium by stimulation buffer (Hepes 10 mM, CaCl2 1 mM, MgCl2 0.5 mM, KCl 4.2 mM, NaCl 146 mM, glucose 5.5 mM and LiCl 50 mM, pH 7.4). Cells are stimulated for 1 h at 37° C., 5% CO2 by addition of the compounds that are diluted in stimulation buffer containing LiCl. Assays are stopped by adding HTRF-conjugates (IP1-d2 and Anti-IP1 cryptate Tb) and lysis buffer, provided by the manufacturer. After an incubation time of 1 h at room temperature plates are measured using an EnVision™, Perkin Elmer. The obtained fluorescence ratios at 665/615 […] are then used to calculate the pEC50 values using Assay Explorer 3.3 Software (Accelrys, Inc.) by interpolation using an IP1 reference curve and subsequent sigmoidal curve fitting allowing for a variable hill slope.

Chain of human GPR40 receptor (O14842 whole entry): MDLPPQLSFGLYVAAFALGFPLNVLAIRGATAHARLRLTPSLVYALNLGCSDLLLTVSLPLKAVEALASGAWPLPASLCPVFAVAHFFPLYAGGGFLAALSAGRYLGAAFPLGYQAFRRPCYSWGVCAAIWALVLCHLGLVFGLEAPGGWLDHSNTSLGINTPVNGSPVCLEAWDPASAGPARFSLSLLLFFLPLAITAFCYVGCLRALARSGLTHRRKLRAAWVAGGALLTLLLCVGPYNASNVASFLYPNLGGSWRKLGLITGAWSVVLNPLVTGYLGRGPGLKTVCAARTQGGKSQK

| Compound | pEC50 |
| --- | --- |
| Cc1cc(OCCCS(C)(=O)=O)cc(C)c1-c1cccc(CNc2cnc([C@H]3C[C@@H]3C(=O)O)cn2)c1 [Example 1, (1S,2S)-2-(5-{[4′-(3-Methanesulfonyl-propoxy)-2′,6′-dimethyl-biphenyl-3-ylmethyl]-amino}-pyrazin-2-yl)-cyclopropanecarboxylic acid] | 7.44 |
| CC(C)(O)CCOc1ccc(-c2cc(CNc3cnc([C@H]4C[C@@H]4C(=O)O)cn3)ccc2C(F)(F)F)cc1 [Example 2, (1S,2S)-2-(5-{[4′-(3-Hydroxy-3-methyl-butoxy)-6-trifluoromethyl-biphenyl-3-ylmethyl]-amino}-pyrazin-2-yl)-cyclopropanecarboxylic acid] | 8.22 |
| O=C(O)[C@H]1C[C@@H]1c1cnc(NCc2ccc(C(F)(F)F)c(-c3ccc(OCC4CC4)cc3)c2)cn1 [Example 3, (1S,2S)-2-{5-[(4′-Cyclopropylmethoxy-6-trifluoromethyl-biphenyl-3-ylmethyl)-amino]-pyrazin-2-yl}-cyclopropanecarboxylic acid] | 7.55 |
| O=C(O)[C@H]1C[C@@H]1c1cnc(NCc2ccc(C(F)(F)F)c(-c3ccc(OC(F)(F)F)cc3)c2)cn1 [Example 4, (1S,2S)-2-{5-[(4′-Trifluoromethoxy-6-trifluoromethyl-biphenyl-3-ylmethyl)-amino]-pyrazin-2-yl}-cyclopropanecarboxylic acid] | 8.05 |
| Cc1cc(OCCC(C)(C)O)cc(C)c1-c1cc(CNc2cnc([C@H]3C[C@@H]3C(=O)O)cn2)ccc1C(F)(F)F [Example 5, (1S,2S)-2-(5-{[4′-(3-Hydroxy-3-methyl-butoxy)-2′,6′-dimethyl-6-trifluoromethyl-biphenyl-3-ylmethyl]-amino}-pyrazin-2-yl)-cyclopropanecarboxylic acid] | 6.51 |
| COc1ccc(-c2ccc(-c3cc(CNc4cnc([C@H]5C[C@@H]5C(=O)O)cn4)c(F)cc3F)cc2)nc1 [Example 6, (1S,2S)-2-(5-{[4,6-Difluoro-4′-(5-methoxy-pyridin-2-yl)-biphenyl-3-ylmethyl]-amino}-pyrazin-2-yl)-cyclopropanecarboxylic acid] | 7.72 |
| COc1ccc(-c2ccc(-c3cc(CNc4cnc([C@H]5C[C@@H]5C(=O)O)cn4)c(F)cc3F)cc2)nn1 [Example 7, (1S,2S)-2-(5-{[4,6-Difluoro-4′-(6-methoxy-pyridazin-3-yl)-biphenyl-3-ylmethyl]-amino}-pyrazin-2-yl)-cyclopropanecarboxylic acid] | 7.42 |
| Cc1cc(N)ccc1-c1cc(CNc2cnc([C@H]3C[C@@H]3C(=O)O)cn2)c(F)cc1F [Example 8, (1S,2S)-2-{5-[(4′-Amino-4,6-difluoro-2′-methyl-biphenyl-3-ylmethyl)-amino]-pyrazin-2-yl}-cyclopropanecarboxylic acid] | 6.90 |
| O=C(O)[C@H]1C[C@@H]1c1cnc(NCc2cc(-c3ccc(O)c(Cl)c3)c(F)cc2F)cn1 [Example 9, (1S,2S)-2-{5-[(3′-Choro-4,6-difluoro-4′-hydroxy-biphenyl-3-ylmethyl)-amino]-pyrazin-2-yl}-cyclopropanecarboxylic acid] | 6.22 |
| COc1c(F)cc(-c2cc(CNc3cnc([C@H]4C[C@@H]4C(=O)O)cn3)c(F)cc2F)cc1F [Example 10, (1S,2S)-2-{5-[(4,6,3′,5′-Tetrafluoro-4′-methoxy-biphenyl-3-ylmethyl)-amino]-pyrazin-2-yl}-cyclopropanecarboxylic acid] | 7.28 |
| Cc1cc(OCC(C)(C)O)cc(C)c1-c1ccc(F)c(CNc2cnc(C3CC3C(=O)O)cn2)c1 (stereo not shown) [Example 11] | 7.74 |
| Cc1cc(OCC2(O)CCS(=O)(=O)CC2)cc(C)c1-c1ccc(F)c(CNc2cnc(C3CC3C(=O)O)cn2)c1 (stereo not shown) [Example 12] | 7.00 |
| CNC(=O)c1cc(C)c(-c2ccc(F)c(CNc3cnc(C4CC4C(=O)O)cn3)c2)c(C)c1 (stereo not shown) [Example 13] | 6.65 |
| Cc1cc(C(=O)N(C)C)cc(C)c1-c1ccc(F)c(CNc2cnc(C3CC3C(=O)O)cn2)c1 (stereo not shown) [Example 14] | 7.47 |
| Cc1cc(C(=O)O)cc(C)c1-c1ccc(F)c(CNc2cnc(C3CC3C(=O)O)cn2)c1 (stereo not shown) [Example 15] | 7.62 |
| Cc1cc(-c2ccc(=O)n(C)c2)cc(C)c1-c1ccc(F)c(CNc2cnc(C3CC3C(=O)O)cn2)c1 (stereo not shown) [Example 16] | 7.68 |
| CC(C)c1ccccc1-c1ccc(F)c(CNc2cnc(C3CC3C(=O)O)cn2)c1 (stereo not shown) [Example 17] | 6.81 |
| Cc1cc(OCC2CCOCC2)cc(C)c1-c1ccc(F)c(CNc2cnc(C3CC3C(=O)O)cn2)c1 (stereo not shown) [Example 18] | 7.85 |
| Cc1cc(OC2CCOCC2)cc(C)c1-c1ccc(F)c(CNc2cnc(C3CC3C(=O)O)cn2)c1 (stereo not shown) [Example 20] | 7.66 |
| Cc1cc(-c2cc(=O)n(C)cn2)cc(C)c1-c1ccc(F)c(CNc2cnc(C3CC3C(=O)O)cn2)c1 (stereo not shown) [Example 21] | 7.68 |

Continued, values first:

| pEC50 | Compound |
| --- | --- |
| 5.72 | Cc1cc(OCC2CCCO2)cc(C)c1-c1ccc(F)c(CNc2cnc(C3CC3C(=O)O)cn2)c1 (mixture of isomers) [Example 44] |
| 7.85 | Cc1cc(-c2ccn(C)c(=O)c2)cc(C)c1-c1ccc(F)c(CNc2cnc(C3CC3C(=O)O)cn2)c1 (stereo not shown) [Example 22] |
| 7.47 | Cc1cc(OCC(C)(C)C#N)cc(C)c1-c1ccc(F)c(CNc2cnc(C3CC3C(=O)O)cn2)c1 (stereo not shown) [Example 24] |
| 8.15 | Cc1cc(-c2nnn(CC(C)(C)O)n2)cc(C)c1-c1ccc(F)c(CNc2cnc(C3CC3C(=O)O)cn2)c1 (stereo not shown) [Example 28] |
| 7.17 | Cc1cc(OCC2(O)CCOCC2)cc(C)c1-c1ccc(F)c(CNc2cnc(C3CC3C(=O)O)cn2)c1 (stereo not shown) [Example 29] |
| 7.55 | Cc1cc(OCC2(O)CCSCC2)cc(C)c1-c1ccc(F)c(CNc2cnc(C3CC3C(=O)O)cn2)c1 (stereo not shown) [Example 30] |
| 8.30 | COc1cc(-c2cc(C)c(-c3ccc(F)c(CNc4cnc(C5CC5C(=O)O)cn4)c3)c(C)c2)ccn1 (stereo not shown) [Example 31] |
| 7.70 | Cc1nc(-c2ccc(-c3ccc(F)c(CNc4cnc(C5CC5C(=O)O)cn4)c3)cc2)cs1 (stereo not shown) [Example 32] |
| 6.83 | Cc1cc(OCC2(C)COC2)cc(C)c1-c1ccc(F)c(CNc2cnc(C3CC3C(=O)O)cn2)c1 (stereo not shown) [Example 33] |
| 6.98 | Cc1cc(OCC(=O)O)cc(C)c1-c1ccc(F)c(CNc2cnc(C3CC3C(=O)O)cn2)c1 (stereo not shown) [Example 34] |
| 8.40 | CCc1cccc(CC)c1-c1ccc(F)c(CNc2cnc(C3CC3C(=O)O)cn2)c1 (stereo not shown) [Example 36] |
| 7.33 | COc1cc(OC)c(F)c(-c2ccc(F)c(CNc3cnc(C4CC4C(=O)O)cn3)c2)c1F (stereo not shown) [Example 37] |
| 5.37 | Cc1cc(CO)cc(C)c1-c1ccc(F)c(CNc2cnc(C3CC3C(=O)O)cn2)c1 (stereo not shown) [Example 39] |
| 7.29 | O=C(O)C1CC1c1cnc(NCc2cc(-c3ccccc3C(F)(F)F)ccc2F)cn1 (stereo not shown) [Example 40] |
| 6.14 | Cc1ccc(Cl)c(-c2ccc(F)c(CNc3cnc(C4CC4C(=O)O)cn3)c2)c1Cl (stereo not shown) [Example 41] |
| 7.55 | Cc1cc(OC2CCOC2)cc(C)c1-c1ccc(F)c(CNc2cnc(C3CC3C(=O)O)cn2)c1 (stereo not shown) [Example 42] |
| 7.47 | O=C(O)C1CC1c1cnc(NCc2cc(-c3c(F)cc(F)cc3F)ccc2F)cn1 (stereo not shown) [Example 45] |
| 8.22 | O=C(O)C1CC1c1cnc(NCc2cc(-c3c(Cl)cccc3Cl)ccc2F)cn1 (stereo not shown) [Example 46] |
| 6.24 | O=C(O)C1CC1c1cnc(NCc2cc(-c3c(F)cccc3F)ccc2F)cn1 (stereo not shown) [Example 47] |
| 7.62 | COc1cc(C)c(-c2ccc(F)c(CNc3cnc(C4CC4C(=O)O)cn3)c2)c(C)c1 (stereo not shown) [Example 48] |
